Experimental data from patent publication US20260130905A1, “TOPICAL FORMULATIONS OF DEUCRAVACITINIB” (Bristol-Myers Squibb Company, priority 2021, published 2026).
≈ marks a conversion by molar mass, not a printed value.

Assays:
Format in all cases: physicochemical
[1] = Solubility of deucravacitinib in water
[2] = Solubility of deucravacitinib in different solvents
Excerpt: The solubility of deucravacitinib was examined in various solvents. […] As these solvents can, in some instances, result in skin irritation, they were not included in the development of the formulations described later in the Examples.

[3] = Solubility of deucravacitinib in solvent systems
Excerpt: The solubility of deucravacitinib was examined in various solvent systems that included water, as water is an essential component in aqueous gels and creams. The example solvent systems in Table 2 were designed for cream formulations. The total percentage of the solvent system was up to 80% of the total % w/w of the composition, with the remaining up to 20% reserved for oil component(s). Water or acidic buffer (an aqueous solution) accounted for 25% w/w of the total composition.

[4] = solvent: N-methyl-2-pyrrolidone (NMP)
[5] = solvent: dimethyl sulfoxide (DMSO)

solubility [1]: ~9 µg/mL (≈ 21.2 µM) | solubility in water [1]: ~0.00009 % w/w | Deucravacitinib solubility ([2]; solvent: Caprylic/capric triglyceride): 0.01 % w/w | Deucravacitinib solubility ([2]; solvent: Diethylene glycol monoethyl ether (DEGEE)): 0.62 % w/w | Deucravacitinib solubility ([2]; solvent: Diisopropyl adipate): 0.01 % w/w | Deucravacitinib solubility ([2]; solvent: Dimethyl isosorbide (DMI)): 0.51 % w/w | Deucravacitinib solubility ([2]; solvent: Ethanol): 0.07 % w/w | Deucravacitinib solubility ([2]; solvent: Isopropanol): 0.02 % w/w | Deucravacitinib solubility ([2]; solvent: Isopropyl myristate): 0.00 % w/w | Deucravacitinib solubility [2, 4]: 10.09 % w/w | solubility (in words) [2, 4]: high solubility | Deucravacitinib solubility ([2]; solvent: Octyldodecanol): 0.01 % w/w | Deucravacitinib solubility ([2]; solvent: Polyethylene glycol (PEG) 400): 0.64 % w/w | Deucravacitinib solubility ([2]; solvent: Polysorbate 80): 0.31 % w/w | Deucravacitinib solubility ([2]; solvent: Propylene glycol): 0.16 % w/w | Deucravacitinib solubility [2, 5]: 9.49 % w/w | solubility (in words) [2, 5]: high solubility | Deucravacitinib solubility ([3]; S1: water 25, PEG 400 38, DEGEE 15, benzyl alcohol 2 % w/w): 0.51 % w/w | Deucravacitinib solubility ([3]; S2: water 25, PEG 400 38, DMI 15, benzyl alcohol 2 % w/w): 0.48 % w/w | Deucravacitinib solubility ([3]; S3: water 25, PEG 400 23, DEGEE 15, DMI 15, benzyl alcohol 2 % w/w): 0.72 % w/w | Deucravacitinib solubility ([3]; S4: 0.1N hydrochloric acid solution 25, PEG 400 38, DEGEE 15, benzyl alcohol 2 % w/w): 0.77 % w/w | Deucravacitinib solubility ([3]; S5: 0.1N hydrochloric acid solution 25, PEG 400 38, DMI 15, benzyl alcohol 2 % w/w): 0.83 % w/w | Deucravacitinib solubility ([3]; S6: 0.1N hydrochloric acid solution 25, PEG 400 23, DEGEE 15, DMI 15, benzyl alcohol 2 % w/w): 1.33 % w/w | solubility (in words) ([3]; three-solvent system S3 (PEG 400, DEGEE, DMI) compared to two-solvent systems S1 and S2): greatest solubility
SMILES: [2H]C([2H])([2H])NC(=O)c1nnc(NC(=O)C2CC2)cc1Nc1cccc(-c2ncn(C)n2)c1OC [Deucravacitinib, 6-(cyclopropanecarboxamido)-4-((2-methoxy-3-(1-methyl-1H-1,2,4-triazol-3-yl)phenyl)amino)-N-(methyl-d3)pyridazine-3-carboxamide]
